Experimental data published in PubChem BioAssay (NCI).
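Cultured in 96-well plates, cells were exposed to test compound for 48 hours across five concentrations. At the TGI there is no net growth.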

Key:
Experiment in all cases: NCI anticancer screen, dose series, 48 h
[1] = test system: SNB-78 CNS
[2] = test system: M19-MEL melanoma
[3] = test system: HOP-92 NSCLC
[4] = test system: DLD-1 colon
[5] = test system: OVCAR-5 ovarian
[6] = test system: SNB-75 CNS
[7] = test system: HT29 colon
[8] = test system: TK-10 renal
[9] = test system: ACHN renal
[10] = test system: SK-OV-3 ovarian
[11] = test system: LXFL 529 NSCLC
[12] = test system: MCF7 breast

Compound	TGI [1] [µM]	TGI [2] [µM]	TGI [3] [µM]	TGI [4] [µM]	TGI [5] [µM]	TGI [6] [µM]	TGI [7] [µM]	TGI [8] [µM]	TGI [9] [µM]	TGI [10] [µM]	TGI [11] [µM]	TGI [12] [µM]
C/C(=N\NC(N)=S)c1ccc2c(c1)OCO2	> 100	> 100	> 100	> 100	> 100	> 100	> 100	> 100	> 100	> 100	> 100	
O=C1C(NCCO)=C(N2CC2)C(=O)C(NCCO)=C1N1CC1	> 100	> 59.8	> 100	> 68.8	> 100	> 100	> 81.8	> 100	> 100	> 88	> 92.9	> 100
Cc1cccc(C(C)(C)C)c1NC(=O)CC1C(=O)Nc2ccccc2S1=O (stereo not given)	> 100		> 100	> 100	> 100	> 100	> 100	> 100	> 100		> 100	
O=[N+]([O-])c1ccc(Cc2nc3ccccc3s2)cc1	> 100	> 100	> 100	> 100	> 100	> 100	> 100	> 100	> 100	> 100	> 100	
N=C(c1ccccc1)N1CCCCC1	> 100	> 100		> 100	> 100	> 100	> 100	> 100			> 100	
CC(C)=CC(=O)Cc1nc2ccccc2[nH]c1=O	> 100	> 100	68	> 100	> 100	> 100	> 100	> 100	> 100	> 100	> 100	
COc1ccc(C2(CN(C)C)COc3cc(OC)c(OC)cc3C2=O)cc1OC (stereo not given)	> 100	> 100	> 100	44.6		> 100	> 100	> 100	> 100	> 100	48.8	
CCN=C1NN=C(c2ccccc2)c2cc(Cl)ccc2N1	72	39.5	47.5		60.9	45.8	32.3	62.7	> 100	68.7		
COc1cc2c(cc1OC)-c1c(cnn1C1OC(COC(C)=O)C(OC(C)=O)C(OC(C)=O)C1OC(C)=O)CC2 (stereo not given)	> 100	> 100	> 100	> 100	> 100	98.2	> 100	> 100	> 100	> 100	> 100	
N#CCCc1nc2ccc(Br)cc2c(=O)n1-c1ccc(O)c([N+](=O)[O-])c1	76.7	42.3	51.6	34.7	> 100	83.2	> 100	> 100	> 100	85.2	40	
O=C(Nc1ccc(C(F)(F)F)cc1[N+](=O)[O-])C(=O)C(C(=O)c1ccc2ccccc2c1)C1OC(=O)c2ccccc21 (stereo not given)	35.4	42.7	4	26.7	26.5	23	23.9	35	> 84.9	> 100	20.9	
CCc1ccccc1NC(=O)CCc1nc(=S)[nH][nH]1	> 100	> 100	> 100	> 100	> 100	> 100	> 100	> 100	> 100	> 100	> 100	
CSC(=S)N(C)c1nc(=[N+](C)C)ss1	> 100	> 100	> 100	> 100	> 100	> 100	> 100	> 100	> 100	> 100	> 100	
Cc1ccccc1C(C#N)/C(=N/NC(=O)c1cc2ccccc2cc1O)C(=O)Nc1cccc(Cl)c1 (stereo not given)	> 100	52.1	> 100	> 100	51.2	35.6	> 100	> 100	> 100	> 100	> 100	
CCCOc1ccc(/C=C\c2cc(OC)c(OC)c(OC)c2)cc1	> 100	> 100	> 100	> 100	60.9	> 100	> 100	> 100	> 100		> 100	
CC(=O)/C=C1/c2ccccc2N(C(C)=O)C1O (stereo not given)	> 100	> 100	> 100	> 100		> 100	> 100		> 100	> 100	> 100	
CCCOc1ccc(/C=C/c2cc(OC)c(OC)c(OC)c2)cc1	> 100	> 100	7.41	35.7	72.9	0.603	3.93	> 100	> 100		> 100	
O=C(CC(=O)Nc1ccc(Cl)cc1)NNCC(=O)Nc1nc(-c2ccccc2)cs1	> 100	> 100		> 100		> 100	> 100	> 100		> 100	> 100	
CCNC(=O)C(O)C1(O)CCC2[C@@H]3CCC4=CC(=O)C=C[C@]4(C)C3[C@@H](O)C[C@@]21C (stereo not given in full)	> 100	> 100		> 100	> 100	> 100	> 100	> 100	> 100	> 100	> 100	
COc1ccc2[nH]c3c(cnn4cnnc34)c2c1		> 100	> 100	> 100	> 100	> 100	> 100	> 100	> 100	> 100	> 100	
Cc1ccc2sc3cc(=O)cc(C)c-3nc2c1	> 100	30.7	> 100	> 100	> 100	> 100	> 100	> 100	> 100	> 100	> 100	
O=C1CCC(c2nc3ccccc3o2)C(=O)N1 (stereo not given)	> 100	> 100	> 100	> 100		> 100	> 100	> 100	> 100	> 100	> 100	
COC(=O)c1nc(-c2ccc(Cl)c(Cl)c2)nc2ccccc12	> 100	> 100		> 100	> 100	11.3	> 100	> 83.5	> 100	31.2	> 100	
Cc1cc2c(cn1)C(=O)OCC2	> 100	> 100		> 100	> 100	> 100	> 100	> 100	> 100	> 100	> 100	
